Legend:
E-cadherin = assay: [32P] phosphorylation of immunoprecipitated E-cadherin, MDCK I cells; format: cell-based; settings: PDB-treated, same cell lysates
p100/p120 [1] = assay: p100/p120 electrophoretic mobility, human umbilical vein endothelial cells (HUVECs); format: cell-based; settings: HUVECs, 200 nM PDB, 30 minutes
Protocol: Cells were treated with or without 200 nM PDB for 30 minutes, lysed into Laemmli sample buffer, separated by electrophoresis and analysed by immunoblotting with antibodies recognising p100 and p120.
Human umbilical vein endothelial cells were incubated with histamine (His), pyrilamine (Pyr) or cimetidine (Cim) alone or in combination. As indicated, cells were preincubated in the absence or presence of cimetidine (10 μM) or pyrilamine (10 μM) for 10 minutes and then treated with or without histamine (10 μM) for a further 10 minutes. The cells were extracted and protein analysed by gel electrophoresis and immunoblotting. […] In the following examples, increase mobility of p100/p120 means decreased phosphorylation.
Whole cell lysates were prepared by rapidly replacing the culture medium in 6.5 mm with hot Laemmli sample buffer, followed by heating at 100° C. for 5 minutes. Immunoprecipitations were carried out at 4° C. Confluent monolayers of cells were washed rapidly with ice cold PBS (containing 0.9 mM CaCl2 and 0.5 mM MgCl2) before addition of 0.5 ml of the appropriate buffer. The filters were then gently scraped, and the lysate was removed and centrifuged at 14000× g. The supernatant was precleared with 10% (w/v) protein A-Sepharose in lysis buffer for 30-60 minutes. Appropriate primary antibodies were added to the lysate, and after 2-3 hours the immunecomplex was isolated, using rabbit anti-mouse secondary antibodies (Jackson Immunoresearch Labs Inc., West Grove, Pa.) and protein A-Sepharose. The beads were washed fives times with lysis buffer, and the bound protein was solubilized in SDS-sample buffer, followed by heating at 100° C. for 5 minutes.
(§1) Cell extracts or immunoprecipitates in SDS sample buffer were resolved by SDS-PAGE. The slab gels were then equilibrated in buffer comprising; 48 mM Tris, 39 mM glycine, 20% methanol and 0.03% SDS. Proteins were transferred to nitrocellulose filters (Hybond ECL; Amersham), which were Ponceau S stained and then blocked for 2 hours at 37° C. with 1% BSA in PBS containing 0.05% Tween-20. Filters were then probed with p120 antibody, at a dilution of 1:2500. After washing, filters were incubated with horseradish peroxidase conjugated anti-mouse antibody (Amersham), at a dilution of 1:5000. The filters were then extensively washed in PBS/0.5% Tween-20, and immunoreactive bands were detected by enhanced chemiluminescence (Amersham) following the manufacturers instructions.

paxillin = paxillin electrophoretic mobility by immunoblotting, MDCK I cells; format: cell-based; settings: 200 nM PDB, 30 minutes
Protocol: The migration of the cellular proteins p100 and p120 during electrophoresis is increased following PDB-treatment of MDCK I cells. PDB (phorbol-12,13-dibutyrate) is a pharmacological activator of protein kinase C. MDCK I cells are a kidney derived epithelial cell line, with particularly well developed junctional complexes. Cells treated for 30 minutes with either 200 nM PDB (+) or vehicle (−) were then lysed into Laemmli sample buffer, and separated by electrophoresis using 6% acrylamide gels. Proteins were transferred to nitrocellulose and probed with antibodies to p100/p120, and then reprobed with E-cadherin and paxillin antibodies.
as §1, with “After washing, filters were incubated with horseradish peroxidase conjugated anti-mouse antibody (Amersham), at a dilution of 1:5000.” left out

p100/p120 [2] = assay: p100/p120 electrophoretic mobility, bovine aortic endothelial cells (BAECs); format: cell-based; settings: 200 nM PDB, 30 minutes
Protocol: The mobility of p100 and p120 during electrophoresis is also altered by PDB-treatment in endothelial cells. The p100/p120 proteins from human umbilical vein endothelial cells (HUVECs), bovine aortic endothelial cells (BAECs) and primary pig brain endothelial cells (PBECs) were all affected by PDB-treatment. Cells were treated with or without 200 nM PDB for 30 minutes, lysed into Laemmli sample buffer, separated by electrophoresis and analysed by immunoblotting with antibodies recognising p100 and p120. […] Thus the effect of PKC activation (via PDB) on p100/p120 mobility is a widespread phenomenon.
Whole cell lysates were prepared by rapidly replacing the culture medium in 6.5 mm with hot Laemmli sample buffer, followed by heating at 100° C. for 5 minutes. Immunoprecipitations were carried out at 4° C. Confluent monolayers of cells were washed rapidly with ice cold PBS (containing 0.9 mM CaCl2 and 0.5 mM MgCl2) before addition of 0.5 ml of the appropriate buffer. The filters were then gently scraped, and the lysate was removed and centrifuged at 14000× g. […]
Cell extracts or immunoprecipitates in SDS sample buffer were resolved by SDS-PAGE. […] The filters were then extensively washed in PBS/0.5% Tween-20, and immunoreactive bands were detected by enhanced chemiluminescence (Amersham) following the manufacturers instructions.

p100/p120 [3] = assay: p100/p120 electrophoretic mobility, LLC-PK1 cells; format: cell-based, porcine; settings: 200 nM PDB, 30 minutes
Protocol: p100 and p120 electrophoretic mobility is affected by PDB in a number of different epithelial cell lines. LLC-PK1, (a porcine kidney cell line), MDCK strain II cells and gut-derived Caco-2 cells were treated with or without 200 nM PDB for 30 minutes, lysed into Laemmli sample buffer, separated by electrophoresis and analysed by immunoblotting.
MDCK strain I and II cells were provided by Barry Gumbiner (memorial Sloan-Kettering Cancer Center, NY). LLC-PK1 and Caco-2 cells were obtained from the European Collection of Animal Cell Cultures. All cells were maintained at 37° C. under 5% CO2 in humidified air. MDCK strain I and II cells were maintained in MEM containing 10% FCS, 100 U/ml penicillin, 100 μg/ml streptomycin and 2 mM L-glutamine. Caco-2 cells were maintained in MEM containing 15% FCS, 1% non-essential amino acids and 1 μg/ml bovine insulin (Sigma I-6634). LLC-PK1 cells were grown in M199 (Gibco), 10% FCS, 100 U/ml penicillin, 100 μg/ml streptomycin and 2 mM L-glutamine. For whole cell lysate analysis, 10^5 cells were plated on 6.5 mm diameter, 0.4 μm, polycarbonate Transwell filters from Costar, in 0.25 ml of medium. The basolateral chamber contained 0.75 ml of medium. For immunoprecipitation, 5×10^5 cells were plated onto 24 mm Transwell filters, in 2 ml of medium, with 3 ml of medium in the lower chamber. Cells were used 4-7 days after plating. […]

p100/p120 [4] = assay: p100/p120 electrophoretic mobility, human umbilical vein endothelial cells (HUVECs); format: cell-based; settings: HUVEC, 5 minutes; histamine 10 μM, PDB 200 nM

CCCC(=O)O[C@@H]1[C@@H](C)[C@@]2(O)[C@@H](C=C(CO)C[C@]3(O)C(=O)C(C)=C[C@@H]23)[C@@H]2C(C)(C)[C@]12OC(=O)CCC [PDB, Phorbol-12,13-dibutyrate]
phosphorylation of E-cadherin (E-cadherin): no change | mobility of p100 and p120 (p100/p120 [1]): the mobility of p100 and p120 increased | effect on paxillin migration (phosphorylation) (paxillin): upward band shift | mobility of p100 and p120 (p100/p120 [2]): the mobility of p100 and p120 increased | migration of p100 and p120 (p100/p120 [3]): increased markedly | mobility of p120 and p100 (p100/p120 [4]): increased mobility
